Laboratory results: patent publication US20160289236A1, “Protein Kinase Inhibitors” (PHARMASCIENCE INC., priority 2013, published 2016)

Experiments:
splenocytes = assay: Splenic cell proliferation assay (anti-IgM stimulated, Cell Titer-Glo); type: cell-based; conditions: Splenocyte; CD1 mouse splenocytes, 2.5 ug/ml anti-IgM F(ab')2 for 72 h, 1 h compound pre-treatment; read-out: EC50 (nM), Inhibition of splenic cell proliferation
Protocol: Proliferation of splenocytes in response to anti-IgM can be blocked by inhibition of Btk. Splenocytes were obtained from 6 week old male CD1 mice (Charles River Laboratories Inc.). Mouse spleens were manually disrupted in PBS and filtered using a 70 um cell strainer followed by ammonium chloride red blood cell lysis. Cells were washed, resuspended in Splenocyte Medium (HyClone RPMI supplemented with 10% heat-inactivated FBS, 0.5× non-essential amino acids, 10 mM HEPES, 50 uM beta mercaptoethanol), and incubated at 37° C., 5% CO2 for 2 h, to remove adherent cells. Suspension cells were seeded in 96 well plates, at 50,000 cells per well, and incubated at 37° C., 5% CO2 for 1 h. Splenocytes were pre-treated in triplicate with 10,000 nM curves of Formula I, compounds for 1 h, followed by stimulation of cell proliferation with 2.5 ug/ml anti-IgM F(ab′)2 (Jackson Immuno Research) for 72 h. Cell proliferation was measured by Cell Titer-Glo Luminescent Assay (Promega). EC50 values (50% proliferation in the presence of compound, as compared to vehicle treated controls) were calculated from dose response compound curves using GraphPad Prism Software.

[1] = molecular target: T1, histidine tagged recombinant human full-length Bruton Agammaglobulinemia Tyrosine Kinase (Btk) (Homo sapiens, UniProt Q06187); assay: Btk kinase inhibition assay, Method A (fluorescence polarization, KinEASE FP Fluorescein Green); type: biochemical; conditions: 10 μM ATP, 250 μM substrate, 60 minutes, Ki calculated from IC50 with Cheng-Prusoff equation
T1 construct: histidine tagged recombinant human full-length Bruton Agammaglobulinemia Tyrosine Kinase (Btk); His tag
Protocol: Fluorescence polarization-based kinase assays were performed in 384 well-plate format using histidine tagged recombinant human full-length Bruton Agammaglobulinemia Tyrosine Kinase (Btk), and a modified protocol of the KinEASE™ FP Fluorescein Green Assay supplied from Millipore®. Kinase reaction were performed at room temperature for 60 minutes, in presence of 250 μM substrate, 10 μM ATP, and variable test article concentrations. The reaction was stopped with EDTA/kinease detection reagents. Phosphorylation of the substrate peptide was detected by fluorescence polarization, measured with a Tecan 500 instrument. From the dose-response curve obtained, the IC50 was calculated using Graph Pad Prisms®, using a non linear fit curve. The Km for ATP on each enzyme was experimentally determined and the Ki values calculated using the Cheng-Prusoff equation (see: Cheng Y, Prusoff W H. (1973) Relationship between the inhibition constant (K1), and the concentration of inhibitor which causes 50% inhibition (I50) of an enzymatic reaction”. Biochem Pharmacol 22 (23): 3099-108).

human BTK kinase (hBTK) = molecular target: T2, human BTK kinase (hBTK) (Homo sapiens, UniProt Q06187); assay: Btk kinase inhibition assay, Method B (KinaseProfiler radiometric protein kinase assay, Eurofins); type: biochemical; conditions: [γ-33P-ATP], 250 μM substrate, 40 minutes
T2 construct: purchased Eurofins Pharma Discovery Services UK Limited
Protocol: In vitro potency of selected compound was defined against human BTK kinase (hBTK) using KinaseProfiler radiometric protein kinase assays performed at Eurofins Pharma Discovery Services UK Limited.
hBTK kinase is diluted in buffer and all compounds were prepared to 50× final assay concentration in 100% DMSO. This working stock of the compound was added to the assay well as the first component in the reaction, followed by the remaining components as detailed in the assay protocol listed above. The reaction was initiated by the addition of the MgATP mix. The kinase reaction was performed at room temperature for 40 minutes, in presence of 250 μM substrate, 10 mM MgAcetate, [γ-33P-ATP] (specific activity approx. 500 cpm/pmol, concentration as required) and variable test article concentrations. The ATP concentrations in the assays were with 15 μM of the apparent. The reaction was stopped by the addition of 3% phosphoric acid solution. 10 μL of the reaction is then spotted onto a P30 filtermat and washed three times for 5 minutes in 75 mM phosphoric acid and once in methanol, prior to drying, and scintillation counting. […]

T1 sequence (Q06187 whole entry): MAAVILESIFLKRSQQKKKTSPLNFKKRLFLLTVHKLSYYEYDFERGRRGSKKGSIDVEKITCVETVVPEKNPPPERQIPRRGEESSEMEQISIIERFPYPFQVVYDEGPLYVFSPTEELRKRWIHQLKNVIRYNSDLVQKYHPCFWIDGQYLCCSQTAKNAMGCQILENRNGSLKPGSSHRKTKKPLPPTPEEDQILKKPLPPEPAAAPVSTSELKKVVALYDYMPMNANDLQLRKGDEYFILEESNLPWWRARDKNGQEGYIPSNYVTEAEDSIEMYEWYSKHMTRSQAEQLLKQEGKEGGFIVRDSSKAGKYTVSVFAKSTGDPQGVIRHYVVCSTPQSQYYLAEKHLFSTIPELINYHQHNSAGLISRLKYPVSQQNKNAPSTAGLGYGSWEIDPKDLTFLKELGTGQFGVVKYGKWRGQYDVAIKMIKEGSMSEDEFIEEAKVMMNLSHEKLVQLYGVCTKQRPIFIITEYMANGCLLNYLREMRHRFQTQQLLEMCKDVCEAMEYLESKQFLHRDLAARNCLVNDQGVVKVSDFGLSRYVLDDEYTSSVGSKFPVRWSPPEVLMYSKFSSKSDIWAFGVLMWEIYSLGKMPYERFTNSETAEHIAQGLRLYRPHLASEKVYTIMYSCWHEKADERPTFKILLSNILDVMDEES
T2 sequence (Q06187 whole entry): as above

Cc1ncc(COc2cc(F)cc(Oc3ccc(-n4cc(C(C)C)c5ncnc(N)c54)cc3)c2)s1 [Compound 2]
EC50 (splenocytes): < 100 nM | Ki [1]: < 100 nM

Cc1ncc(COc2cc(F)cc(Oc3ccc(-n4cc(C(C)C)c5ncnc(N)c54)cc3)c2)cn1 [Compound 9]
EC50 (splenocytes): < 100 nM | Ki [1]: < 100 nM

Cc1ccc(COc2cc(F)cc(Oc3ccc(-n4cc(C5CCOCC5)c5ncnc(N)c54)cc3)c2)cn1 [Compound 5]
EC50 (splenocytes): < 100 nM | Ki [1]: < 100 nM

Cc1ncc(COc2cc(F)cc(Oc3ccc(-n4cc(C5CC(CO)C5)c5ncnc(N)c54)cc3)c2)cn1 (stereo not drawn) [Compound 10]
EC50 (splenocytes): < 100 nM

Cc1ccc(COc2cc(F)cc(Oc3ccc(-n4cc(C5CCCC5)c5ncnc(N)c54)cc3)c2)cn1 [Compound 4]
EC50 (splenocytes): < 100 nM

Cc1ncc(COc2cc(F)cc(Oc3ccc(-n4cc(C5CCOCC5)c5ncnc(N)c54)cc3)c2)s1 [Compound 6]
EC50 (splenocytes): < 100 nM | Ki [1]: < 100 nM

Cc1ncc(COc2cc(F)cc(Oc3ccc(-n4cc(C5CCCC5)c5ncnc(N)c54)cc3)c2)s1 [Compound 3]
EC50 (splenocytes): < 100 nM

Cc1ncc(COc2cc(F)cc(Oc3ccc(-n4cc(C5CCOCC5)c5ncnc(N)c54)cc3)c2)cn1 [Compound 7]
EC50 (splenocytes): < 100 nM | Ki [1]: < 100 nM

Cc1ncc(COc2cc(F)cc(Oc3ccc(-n4cc(C5CCCC5)c5ncnc(N)c54)cc3)c2)cn1 [Compound 8]
EC50 (splenocytes): < 100 nM

Cc1ncc(COc2cc(F)cc(Oc3ccc(-n4cc([C@H]5C[C@@H](O)C5)c5ncnc(N)c54)cc3)c2)cn1 [Compound 11]
EC50 (splenocytes): < 100 nM | EC50 (human BTK kinase (hBTK)): < 100 nM

Cc1ccc(COc2cc(F)cc(Oc3ccc(-n4cc(C(C)C)c5ncnc(N)c54)cc3)c2)cn1 [Compound 1]
EC50 (splenocytes): < 100 nM | Ki [1]: < 100 nM
